Results as given in patent US6613322B2, “Method for treating a subject suffering from conditions associated with an extracellular zinc sphingomyelinase” (The Trustees of Columbia University in the City of New York, priority 1997, dated 2003).

What was measured:
ASM (SMase) mRNA = assay: Northern blot of SMase mRNA in HUVECs; format: cell-based, human; details: IL-1β 5 ng/ml, 18 h
Description: FIG. 24. Northern blot analysis of HUVECs incubated in the absence or presence of IL-1β. HUVECs were incubated for 18 h in DMEM, 0.2% BSA alone (Con) or containing human recombinant interleukin-1β (5 ng/ml) (IL1β).
Northern Blot of SMase mRNA—Total cellular RNA was isolated from HUVECs using RNAzol B (Tel-Test. Inc., Friendswood, Tex.). Approximately 10 μg of RNA was separated on a 1% agarose gel and blotted onto a nylon membrane. The membrane was hybridized in a QuikHyb hybridization solution (Stratagene) with a 1.6-kB EcoRI-XhoI fragment of human ASM cDNA (41) that was labeled with ^32P by the random-priming Procedure (GIBCO-BRL®). The amount of RNA loaded for each condition was normalized using a probe to glyceraldehyde-3-phosphate dehydrogenase. The relative intensities of the mRNA bands were determined by densitometric scanning of the autoradiograms using a Molecular Dynamics Computing Densitometer (model 300A) with Image-Quant software.

L-SMase = biological target: T1, L-SMase (Homo sapiens, UniProt P17405); assay: SMase assay of HUVEC cell homogenate, zinc-dependency; format: biochemical
T1 construct: endogenous in cells; host or cells: HUVEC, sonicated cell homogenate
T1 sequence (P17405 47-631): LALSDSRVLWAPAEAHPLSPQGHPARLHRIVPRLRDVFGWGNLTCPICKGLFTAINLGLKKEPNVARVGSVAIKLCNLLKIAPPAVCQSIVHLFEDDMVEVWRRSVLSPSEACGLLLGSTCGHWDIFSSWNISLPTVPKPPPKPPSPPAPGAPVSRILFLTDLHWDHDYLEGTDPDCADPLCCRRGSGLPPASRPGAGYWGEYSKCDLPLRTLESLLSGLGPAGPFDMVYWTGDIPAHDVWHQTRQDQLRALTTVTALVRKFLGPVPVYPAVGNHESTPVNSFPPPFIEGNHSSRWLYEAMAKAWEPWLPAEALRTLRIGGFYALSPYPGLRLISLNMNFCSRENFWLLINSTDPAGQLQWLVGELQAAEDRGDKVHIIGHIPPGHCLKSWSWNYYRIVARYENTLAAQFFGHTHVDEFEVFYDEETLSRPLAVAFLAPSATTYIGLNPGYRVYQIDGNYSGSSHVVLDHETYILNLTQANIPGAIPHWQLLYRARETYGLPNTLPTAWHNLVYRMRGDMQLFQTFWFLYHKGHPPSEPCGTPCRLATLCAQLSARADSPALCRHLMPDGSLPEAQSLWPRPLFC
Description: Smase Assay—As previously described (15), the standard 200-μl assay mixture consisted of up to 40 μl of sample (conditioned media or homogenized cells; see above, and a volume of assay buffer (0.1 M sodium acetate, pH 5.0) to bring the volume to 160 μl. The reaction was initiated by the addition of 40 μl substrate (50 pmol [^3H]sphingomyelin) in 0.25 M sucrose containing 3% Triton X-100 (final concentration of Triton X-100 in the 200-μl assay mix=0.6%). When added, the final concentrations of EDTA and Zn^2+ were 5 mM and 0.1 mM, respectively, unless indicated otherwise. The assay mixtures were incubated at 37° C. for no longer than 3 h and then extracted by the method of Bligh and Dyer (37); the lower, organic phase was harvested, evaporated under N2, and fractionated by TLC using chloroform:methanol (95:5). The ceramide spots were scraped and directly counted to quantify [^3H]ceramide. Typically, our assay reactions contained approximately 20 μg of cellular homogenate protein and a volume of conditioned media derived from a quantity of cells equivalent to approximately 50 μg of cellular protein.

Compound	increase in SMase mRNA normalized for GAPDH mRNA (ASM (SMase) mRNA)	increase of enzymatic activity of L-SMase by Zn2+ (L-SMase; L-SMase from IL-1β-treated HUVECs)	increase of enzymatic activity of L-SMase by Zn2+ (L-SMase; L-SMase from untreated HUVECs)
IL-1β: human recombinant interleukin-1β	~40%	–	–
[Cl-].[Cl-].[Zn+2] [Zn^2+, ZnCl2]	–	1.13±0.08 fold	1.09±0.04 fold
